Results from US12503452B2 (Curza Global, LLC, priority 2019, dated 2025).
Like-named read-outs stand apart in the source and are kept apart here. One block for each molecule: values may come before it.

Key:
[1] = test system: E. coli S30 extract (bacterial protein synthesis); test: E. coli S30 extract coupled transcription-translation luciferase assay (inhibition of bacterial protein synthesis); type: biochemical; conditions: read-out: S30 IC50 (μM/% inhib.)
Experimental: E. coli S30 extract: Inhibition of bacterial protein synthesis was determined using the E. coli S30 Extract System for Circular DNA (Promega catalog #L-2010) and Luciferase Assay Reagent (Promega catalog #E1500) with slight modifications to a published protocol. Fyfe, C., Sutcliffe, J. A. and Grossman, T. H. (2012) “Development and characterization of a Pseudomonas aeruginosa in vitro coupled transcription-translation assay system for evaluation of translation inhibitors” J. Microbiol. Methods 90(3), 256-261.
Compounds were serial diluted in 0.5 mL microcentrifuge tubes by mixing and transferring 50 μL from the highest concentration to 50 μL of water, mixing and transferring 50 μL of this 2-fold dilution to 50 μL of water. This mixing and transferring was repeated so that there are a total of 8 tubes with serial dilutions of compound at 10× the desired screening concentration that are ultimately diluted to 1× by the addition of S30 luciferase synthesis mixture. Serial dilutions of compounds were added (2 μL) to wells in a black round bottom 96-well plate. Water (2 μL) was used as a “no inhibitor” control in 4 wells/plate. No DNA control reaction mixture (20 μL; see below) was used as a control in 4 wells/plate for background luminescence. S30 luciferase synthesis mixture (18 μL; see below) was added to wells with compounds or water mixture and incubated at 37° C. for 1 hour. Reactions were stopped by transferring to 4° C. refrigerator for 5 minutes then 25 μL of luciferase activity mix was added. Luminescence was measured using a BioTek Synergy HTX plate reader. % Inhibition was determined relative to no inhibitor controls.
S30 luciferase synthesis mixture:
• 445 μL S30 extract, circular • 712 μL S30 Premix without amino acids • 4.45 μL pBESTluc™ DNA (1 μg/μL) • 78 μL complete amino acid mixture • 267 μL water No DNA control: • 20 μL S30 extract, circular • 32 μL S30 Premix without amino acids • 7 μL complete amino acid mixture • 21 μL water Rabbit Reticulocyte lysate

[2] = biological target: Rabbit Reticulocyte Lysate (eukaryotic protein synthesis); test: Rabbit reticulocyte lysate luciferase assay (inhibition of eukaryotic protein synthesis); type: biochemical; conditions: read-out: Rabbit reticulocyte IC50 (μM/% inhib.)
Experimental: Inhibition of eukaryotic protein synthesis was determined using the Rabbit Reticulocyte Lysate System, Nuclease-Treated from Promega (catalog #L-4960) with slight modifications to the manufacturer's protocol. Compounds were serial diluted in 0.5 mL microcentrifuge tubes by mixing and transferring 50 μL from the highest concentration to 50 μL of water, mixing and transferring 50 μL of this 2-fold dilution to 50 μL of water. This mixing and transferring was repeated so that there are a total of 8 tubes with serial dilutions of compound at 10× the desired screening concentration that are ultimately diluted to 1× by the addition of rabbit reticulocyte luciferase synthesis mixture. Serial dilutions of compounds were added ([…]) to wells in a black round bottom 96-well plate. Water (2.5 μL) was used as a “no inhibitor” control in 4 wells/plate. No RNA control reaction mixture ([…]; see below) was used as a control in 4 wells/plate for background luminescence. Rabbit reticulocyte luciferase synthesis mixture (22.5 μL; see below) was added to wells with compounds or water mixture and incubated at 30° C. for 90 minutes. Luciferase assay reagent (25 μL) was added with luminescence measured using a BioTek Synergy HTX plate reader. % Inhibition was determined relative to no inhibitor controls.
Rabbit reticulocyte luciferase synthesis mixture:
• 1,000 μL rabbit reticulocyte lysate • 5.7 μL Luciferase Control RNA (1 μg/μL) • 26 μL complete amino acid mixture • 395 μL water No RNA Control • 70 μL rabbit reticulocyte lysate • 2 μL complete amino acid mixture • 28 μL water Minimum Inhibitory Concentration (MIC)

[3] = class by IC50 or % inhibition @ 1 μM

SMILES: CC1CN(Cc2ccc(-n3ccc(NC(=O)N4CCN(C(=O)[C@@](C)(N)CO)CC4)nc3=O)cc2)CCC1N (stereo in doubt) [Compound 224]
IC50 [1, 3]: < 0.5 µM | IC50 [2, 3]: > 1 µM

SMILES: CC1(N)CCN(CCc2ccc(-n3ccc(NC(=O)N4CCN(C(=O)C(C)(N)CO)CC4)nc3=O)cc2)CC1 (stereo in doubt) [Compound 361]
IC50 ([1]; % inhibition @ 1 μM): > 1 µM | IC50 ([2]; % inhibition @ 1 μM): > 1 µM

SMILES: CC(C)(N)C(=O)N1CCN(C(=O)Nc2ccn(-c3ccc(CCN4CCC(CN)CC4)cc3)c(=O)n2)CC1 [Compound 1]
IC50 [1, 3]: 0.5 to 1 µM | IC50 [2, 3]: > 1 µM

SMILES: CC(C)(N)C(=O)N1CCN(C(=O)Nc2ccn(-c3cccc(CCN4CCCC(CN)C4)c3)c(=O)n2)CC1 (stereo not shown) [Compound 3]
IC50 [1, 3]: > 1 µM

SMILES: CNC1CCN(CCc2cccc(-n3ccc(NC(=O)N4CCN(C(=O)C(C)(C)N)CC4)nc3=O)c2)CC1 [Compound 4]
IC50 [1, 3]: > 1 µM

SMILES: CC(C)(N)C(=O)N1CCN(C(=O)Nc2ccn(-c3cccc(CCN4CC[C@@H](N)C4)c3)c(=O)n2)CC1 [Compound 5]
IC50 [1, 3]: > 1 µM | IC50 [2, 3]: > 1 µM

SMILES: CC(C)(N)C(=O)N1CCN(C(=O)Nc2ccn(-c3cccc(CCN4CC[C@H](N)C4)c3)c(=O)n2)CC1 [Compound 6]
IC50 [1, 3]: > 1 µM | IC50 [2, 3]: > 1 µM

SMILES: CC(C)(N)C(=O)N1CCN(C(=O)Nc2ccn(-c3ccc(CCN4CC[C@H](N)C4)cc3)c(=O)n2)CC1 [Compound 7]
IC50 [1, 3]: > 1 µM

SMILES: CC(C)(N)C(=O)N1CCN(C(=O)Nc2ccn(-c3ccc(CCN4CCC[C@H](N)C4)cc3)c(=O)n2)CC1 [Compound 9]
IC50 [1, 3]: > 1 µM

SMILES: CC(C)(N)C(=O)N1CCN(C(=O)Nc2ccn(-c3ccc(CCN4CCCC(CN)C4)cc3)c(=O)n2)CC1 (stereo not shown) [Compound 10]
IC50 [1, 3]: < 0.5 µM | IC50 [2, 3]: > 1 µM

SMILES: C[C@](N)(CO)C(=O)N1CCN(C(=O)Nc2ccn(-c3ccc(CCN4CC[C@@H](N)C4)cc3)c(=O)n2)CC1 [Compound 11]
IC50 [1, 3]: 0.5 to 1 µM | IC50 [2, 3]: > 1 µM

SMILES: C[C@](N)(CO)C(=O)N1CCN(C(=O)Nc2ccn(-c3ccc(CCN4CC[C@H](N)C4)cc3)c(=O)n2)CC1 [Compound 13]
IC50 [1, 3]: > 1 µM | IC50 [2, 3]: > 1 µM

SMILES: CC(C)(N)C(=O)N1CCN(C(=O)Nc2ccn(-c3ccc(CCN4CC(N)C4)cc3)c(=O)n2)CC1 [Compound 16]
IC50 [1, 3]: > 1 µM | IC50 [2, 3]: > 1 µM

SMILES: CC(C)(N)C(=O)N1CCN(C(=O)Nc2ccn(-c3ccc(CCN4CC[C@H](CN)C4)cc3)c(=O)n2)CC1 [Compound 17]
IC50 [1, 3]: < 0.5 µM | IC50 [2, 3]: > 1 µM

SMILES: CC(C)(N)C(=O)N1CCN(C(=O)Nc2ccn(-c3ccc(CCN4CC[C@@H](CN)C4)cc3)c(=O)n2)CC1 [Compound 18]
IC50 [1, 3]: < 0.5 µM | IC50 [2, 3]: > 1 µM

SMILES: CN(C)C1CCCN(CCc2ccc(-n3ccc(NC(=O)N4CCN(C(=O)C(C)(C)N)CC4)nc3=O)cc2)CC1 (stereo not shown) [Compound 36]
IC50 [1, 3]: > 1 µM | IC50 [2, 3]: > 1 µM

SMILES: CC(C)(N)C(=O)N1CCN(C(=O)Nc2ccn(-c3ccc(C(C)(C)CN4CCCC(N)CC4)cc3)c(=O)n2)CC1 (stereo not shown) [Compound 37]
IC50 [1, 3]: > 1 µM | IC50 [2, 3]: > 1 µM

SMILES: CC(C)(N)C(=O)N1CCN(C(=O)Nc2ccn(-c3ccc(C(C)(C)CN4CC[C@@H](CN)C4)cc3)c(=O)n2)CC1 [Compound 38]
IC50 [1, 3]: > 1 µM | IC50 [2, 3]: > 1 µM

SMILES: CC(C)(N)C(=O)N1CCN(C(=O)Nc2ccn(-c3ccc(C(C)(C)CN4CC[C@H](CN)C4)cc3)c(=O)n2)CC1 [Compound 39]
IC50 [1, 3]: > 1 µM | IC50 [2, 3]: > 1 µM

SMILES: CC(C)(N)C(=O)N1CCN(C(=O)Nc2ccn(-c3ccc(C4(CN5CCCC(N)CC5)CC4)cc3)c(=O)n2)CC1 (stereo not shown) [Compound 40]
IC50 [1, 3]: > 1 µM | IC50 [2, 3]: > 1 µM

SMILES: NCC1CCCN(C(=O)Nc2ccn(-c3ccc(CN4CCC(N)CC4)cc3)c(=O)n2)C1 (stereo not shown) [Compound 46]
IC50 [1, 3]: > 1 µM | IC50 [2, 3]: > 1 µM

SMILES: NC1CCN(Cc2ccc(-n3ccc(NC(=O)N4CCC[C@@H](N)C4)nc3=O)cc2)CC1 [Compound 47]
IC50 [1, 3]: > 1 µM | IC50 [2, 3]: > 1 µM

SMILES: NC1CCN(Cc2ccc(-n3ccc(NC(=O)N4CCC[C@H](N)C4)nc3=O)cc2)CC1 [Compound 48]
IC50 [1, 3]: > 1 µM | IC50 [2, 3]: > 1 µM

SMILES: NC1CCN(Cc2ccc(-n3ccc(NC(=O)N4C[C@H]5CNC[C@H]5C4)nc3=O)cc2)CC1 [Compound 50]
IC50 [1, 3]: > 1 µM | IC50 [2, 3]: > 1 µM

SMILES: NCC1CN(C(=O)Nc2ccn(-c3ccc(CN4CCC(N)CC4)cc3)c(=O)n2)CCO1 (stereo not shown) [Compound 51]
IC50 [1, 3]: > 1 µM | IC50 [2, 3]: > 1 µM

SMILES: NC[C@H]1CCN(C(=O)Nc2ccn(-c3ccc(CN4CCC(N)CC4)cc3)c(=O)n2)C1 [Compound 52]
IC50 [1, 3]: > 1 µM | IC50 [2, 3]: > 1 µM

SMILES: NC[C@@H]1CCN(C(=O)Nc2ccn(-c3ccc(CN4CCC(N)CC4)cc3)c(=O)n2)C1 [Compound 53]
IC50 [1, 3]: > 1 µM | IC50 [2, 3]: > 1 µM

SMILES: NC1CCN(Cc2ccc(-n3ccc(NC(=O)N4CCCNCC4)nc3=O)cc2)CC1 [Compound 54]
IC50 [1, 3]: > 1 µM | IC50 [2, 3]: > 1 µM

SMILES: CCC1CN(C(=O)C(C)(C)N)CCN1C(=O)Nc1ccn(-c2ccc(CN3CCC(N)CC3)cc2)c(=O)n1 (stereo not shown) [Compound 55]
IC50 [1, 3]: 0.5 to 1 µM | IC50 [2, 3]: > 1 µM

IC50 [2, 3]: > 1 µM
SMILES: C[C@@H]1CN(C(=O)C(C)(C)N)[C@@H](C)CN1C(=O)Nc1ccn(-c2ccc(CN3CCC(N)CC3)cc2)c(=O)n1 [Compound 60]

SMILES: COC(=O)[C@@H]1CN(C(=O)C(C)(C)N)CCN1C(=O)Nc1ccn(-c2ccc(CN3CCC(N)CC3)cc2)c(=O)n1 [Compound 63]
IC50 [1, 3]: 0.5 to 1 µM | IC50 [2, 3]: > 1 µM

SMILES: CC[C@H]1CN(C(=O)Nc2ccn(-c3ccc(CN4CCC(N)CC4)cc3)c(=O)n2)CCN1C(=O)C(C)(C)N [Compound 66]
IC50 [1, 3]: > 1 µM | IC50 [2, 3]: > 1 µM

SMILES: CC[C@@H]1CN(C(=O)Nc2ccn(-c3ccc(CN4CCC(N)CC4)cc3)c(=O)n2)CCN1C(=O)C(C)(C)N [Compound 67]
IC50 [1, 3]: > 1 µM | IC50 [2, 3]: > 1 µM

SMILES: C[C@H]1CN(C(=O)Nc2ccn(-c3ccc(CN4CCC(N)CC4)cc3)c(=O)n2)CCN1C(=O)C(C)(C)N [Compound 72]
IC50 [1, 3]: 0.5 to 1 µM | IC50 [2, 3]: > 1 µM

IC50 [2, 3]: > 1 µM
SMILES: CC(C)(N)C(=O)N1CCN(C(=O)Nc2ccn(-c3ccc(CN4CCC(N)CC4)cc3)c(=O)n2)CC1(C)C [Compound 73]

IC50 [2, 3]: > 1 µM
SMILES: CC(C)(N)C(=O)N1CCN(C(=O)Nc2ccn(-c3ccc(CN4CCC(N)CC4)cc3)c(=O)n2)CC1c1ccccc1 (stereo not shown) [Compound 75]

IC50 [2, 3]: > 1 µM
SMILES: C[C@@H]1CN(C(=O)C(C)(C)N)C[C@H](C)N1C(=O)Nc1ccn(-c2ccc(CN3CCC(N)CC3)cc2)c(=O)n1 [Compound 76]

SMILES: CC(C)[C@H]1CN(C(=O)C(C)(C)N)CCN1C(=O)Nc1ccn(-c2ccc(CN3CCC(N)CC3)cc2)c(=O)n1 [Compound 77]
IC50 [1, 3]: > 1 µM | IC50 [2, 3]: > 1 µM

SMILES: CCC1CN(C(=O)Nc2ccn(-c3ccc(CN4CCC(N)CC4)cc3)c(=O)n2)CCN1C(=O)C(C)(C)N (stereo not shown) [Compound 78]
IC50 [1, 3]: > 1 µM | IC50 [2, 3]: > 1 µM

SMILES: CC(C)(N)C(=O)N1C[C@@H]2CC1CN2C(=O)Nc1ccn(-c2ccc(CN3CCC(N)CC3)cc2)c(=O)n1 [Compound 80]
IC50 [1, 3]: 0.5 to 1 µM | IC50 [2, 3]: > 1 µM

SMILES: CC(C)(N)C(=O)N1CCN(C(=O)Nc2ccn(-c3ccc(CN4CCC(N)CC4)cc3)c(=O)n2)C[C@H]1C(=O)O [Compound 81]
IC50 [1, 3]: > 1 µM | IC50 [2, 3]: > 1 µM

SMILES: CC[C@H]1CN(C(=O)C(C)(C)N)CCN1C(=O)Nc1ccn(-c2ccc(CN3CCC(N)CC3)cc2)c(=O)n1 [Compound 83]
IC50 [1, 3]: > 1 µM | IC50 [2, 3]: > 1 µM

SMILES: CC[C@@H]1CN(C(=O)C(C)(C)N)CCN1C(=O)Nc1ccn(-c2ccc(CN3CCC(N)CC3)cc2)c(=O)n1 [Compound 84]
IC50 [1, 3]: > 1 µM | IC50 [2, 3]: > 1 µM

SMILES: CC(C)(N)CC(=O)N1CCN(C(=O)Nc2ccn(-c3ccc(CCN4CCC(N)CC4)cc3)c(=O)n2)CC1 [Compound 197]
IC50 [1, 3]: > 1 µM
